US20080220056A1, “Treatment for liver disease” (UNIVERSITY OF SOUTHAMPTON, priority 2002, published 2008)

Test system: rat hepatocytes in comparison to rat hepatic stellate cells
Test: Cell attachment (protein assay): gliotoxin doses killing rat hepatocytes versus hepatic stellate cells
Format: cell-based
Settings: attachment after four hours, in vitro
Procedure: Rat hepatocytes were isolated by collagenase perfusion essentially as previously described. (Harvey et al., Biochemical J., (1998) 331:273-281). Hepatocytes were cultured as outlined for hepatic stellate cells except that they were initially seeded onto collagen coated plates in William's medium E supplemented with 10% fetal calf serum and 1 μg/mL insulin for the first 2 hours.
Cells were treated with gliotoxin dissolved in DMSO vehicle (added to medium from a 2000-fold molar concentrated stock). Control cells received DMSO vehicle only (i.e., 0.05% vol/vol). All other additions to culture medium were made from concentrated stocks dissolved in DMSO or by direct addition to culture medium. Protein contents of wells were determined using the Lowry assay (Lowry et al., J. Biol. Chem., (1951)193: 265-275).
The necessary doses of gliotoxin required to kill rat hepatic stellate cells and hepatocytes were compared. Culture-activated (14-day) rat hepatic stellate cells or rat hepatocytes were treated with either 0.05% (vol/vol) DMSO or 1.5 μmol/L gliotoxin and cell attachment determined by direct assay of protein in each well after four hours as outlined in Materials and Methods. The results obtained are depicted in FIG. 3A and are expressed as the mean and standard deviation percentage attachment versus DMSO control for three separate experiments.

CN1C(=O)[C@]23CC4=CC=C[C@H](O)[C@H]4N2C(=O)[C@@]1(CO)SS3 [gliotoxin]
higher concentrations required to kill rat hepatocytes in comparison to rat hepatic stellate cells: 10 to 100 fold
